Experimental data from patent US11091786B2, “Butelase-mediated peptide ligation” (Nanyang Technological University, priority 2015, dated 2021).
≈ marks a conversion by molar mass, not a printed value. Numbered stars: 1 amine (or outer) side, 2 acyl side, 3 side chain; on linkers, the order of the positions; unused ones are H or OH. Bridge positions count the residues as written; N and C are the ends. Square brackets hold non-standard residues; d marks the D form. Side chains are listed from the residue outwards. Ends that are not written are not given here. Peptide text beside a SMILES is read from it. I, II: the chains in the order shown. X1 = O=C(CO[*:1])[*:2]; βAla = NCCC(=O)O

Columns and labels:
[1] = tested on: E. coli; assay type: cell-based
Method: (§1) The materials for radial diffusion assay were prepared as following:
(§2) Trypticase soy broth (TSB): Full-strength broth contains 30 grams of TSB powder per liter of deionized water. It was autoclaved at 120° C. for 20 min and stored at room temperature.
(§3) Underlay gel: 50 mL of […] sodium phosphate buffer, 5 ml full-strength TSB and 5 g agarose were mixed in a beaker followed by addition of deionized water to 500 mL. The medium was autoclaved at 120° C. for 20 min. Before use, it was maintained at 42° C. to prevent from solidifying.
(§4) Overlay gel: One liter of overlay gel contains 60 g of TSB powder and 10 g of agarose. The medium was autoclaved at 120° C. for 20 min. To prevent from solidifying, it was maintained at 42° C. before use.
(§5) The following protocol was applied to the radial diffusion assay.
(§6) 1. A single colony was picked and transferred into a 5 ml tube containing 2.5 ml TSB. The culture was shaken at 37° C. for 18 h.
(§7) 2. 50 μl of the stationary phase culture was diluted to 2.5 mL of autoclaved TSB (1:50 dilution) and shaken at 37° C. for another 3 h.
(§8) 3. This subculture was centrifuged at 5000 rpm for 5 min and the supernatant was discarded. The residual cells were washed with cold sterile 10 mM phosphate buffer, pH 7.4 and the buffer was discarded after centrifuge. 5 ml of the same buffer was added to resuspend the cells and its bacteria concentration was determined by measuring its optical density at 620 nm.
(§9) 4. 10 ml of antoclaved, molten underlay gel agar was transferred to a 15-ml eppendorf tube and mixed with 4×10^6 CFU of bacteria by vortexing. The mixture was then poured into a petri dish and gelled in less than […]. Wells were punched against the gel using a Pasteur pippette.
(§10) 5. Peptides to be tested were serially diluted and 3.5 μl of each sample was added to the well. The plates were incubated at 37° C. for 3 h with gel-side up.
(§11) 6. Next, each underlay gel was covered with 10 ml of overlay gel. After the gel solidified, the plates were turned gel-side up and incubated at 37° C. for overnight.
(§12) 7. The following morning, all the plates were taken out and the zone diameters were measured with ruler. All the samples were tested in duplicates and the results were averaged. The final minimum inhibition concentration (MIC) was determined using excel.
(§13) There is a growing interest to develop peptide-based antibiotics (Annu Rev Immunol. 1995, 13, 61-92; J Intern Med. 2003, 254, 197-215; Cent Eur J Biol 2007, 2, 1-33; Int J Pept Res Ther. 2010, 16, 199-213) because, compared with conventional antibiotics, they are less likely to develop drug resistance and have fewer side effects (J Med Chem. 2015, 58, 6533-6548; Biochemistry-Us. 2000, 39, 7159-7169; Eur J Biochem. 2000, 267, 3289-3300; Nucleic Acids Res. 2012, 40, W199-204). To apply the presently disclosed enzymatic method in preparing dendrimeric antimicrobials, inventors synthesized two antimicrobials 12 (bivalent) and 13 (tetravalent) (MS shown in supporting information) which harbored a tetrapeptide RLYR (SEQ ID NO:121) as the antibacterial sequence (Eur J Biochem. 2002, 269, 923-932) by ligating N-acetylated thiodepsipeptide 10 Ac-RLYRN-thioglc-V (SEQ ID NO:120) with dendron core 2 and 6 respectively. The RLYR (SEQ ID NO:121) tetrapeptide contains a BHHB motif (B=basic, H=hydrophobic) which is commonly found in certain potent and broad-spectrum β-stranded antimicrobial peptides (BioDrugs. 2013, 27, 479-493) such as PG (protegrins) (Febs Lett. 1993, 327, 231-236) and RTD-1 (rhesus monkey theta defensin) (Science. 1999, 286, 498-502). This consensus motif with positive charged and hydrophobic residues was successfully used as a dendrimeric antimicrobial in 2002 (Eur J Biochem. 2002, 269, 923-932). Such short peptide-based dendrimeric antimicrobials are broad-spectrum antibiotics and kill bacterial cells through electrostatic and hydrophobic interactions with the negatively charged microbial cytoplasmic membranes (Biochemistry-Us. 2009, 48, 5642-5657). […]

[2] = tested on: S. aureus; assay type: cell-based
Method: as §1, §2, §3, §4, §5, §6, §7, §8, §9, §10, §11, §12, §13

[3] = tested on: butelase 1; assay: Butelase-mediated ligation kinetic characterization (Lineweaver-Burk); assay type: biochemical, Clitoria ternatea; conditions: 0.1 μM butelase 1, 1 mM GIGGIR, peptide 25 to 400 μM, pH 6.5, 42° C.
Method: Ligation assays were performed in 50-μl mixtures containing reaction buffer (1 mM EDTA, 20 mM phosphate buffer, pH 6.5), 0.1 […] butelase 1, 1 mM GIGGIR (SEQ ID NO:114) and varying concentrations of peptides 1-4 (25 to 400 μM). The reactions were performed in triplicate at 42° C. and quenched by adding 5 μl of 1 M HCl solution. The peptides were separated by using a reversed-phase C18 analytical column (150×2.1 mm, Vydac) with a linear gradient from 5% to 40% acetonitrile over 15 min on a Nexera UHPLC system (Shimadzu). The ligation velocities were calculated by converting the HPLC-peak areas of remained linear precursors or the ligated products into concentrations. The identity of each HPLC peak was analyzed by MALDI-TOF MS (ABI 4800 MALDI TOF/TOF). The kinetic parameters (kcat and Km) for each peptide were obtained by the LineweaverBurk plot.

[4] = Degradation time course of peptide in reaction buffer without butelase 1 (HPLC); assay type: physicochemical; conditions: absence of butelase 1, peptide 100 μM, 42° C.
Method: (§14) FIG. 9. Degradation time course for thiodepsipeptide 1 and depsipeptide 2. Each peptide (100 μM) was incubated in the absence or presence of butelase 1 (50 nM) at 42° C. The peptide stability was monitored by HPLC every […].
(§15) To apply butelase 1 for N-terminal labeling of proteins, inventors used ubiquitin and green fluorescent protein (GFP) as examples (FIG. 4). Since butelase 1 prefers a hydrophobic amino acid (Ile/Leu/Val) or Cys at the P2″ position of an acceptor nucleophile, inventors prepared a recombinant ubiquitin protein (SEQ ID NO:122) with Gly-Ile at the N-terminus and His-tag at the C-terminus. It was also examined whether this method would work if His-tag was located at the N-terminus. Inventors thus prepared a recombinant GFP (SEQ ID NO:123) with an additional Ile inserted between the start codon and the N-terminal His-tag. Both proteins were labeled with the model thiodepsipeptide 1 in the presence of 0.001 molar equivalent of butelase 1. The labeling of proteins was slower as compared to the labeling of peptide 5, probably due to large differences in size between the model peptide and proteins. Furthermore, the N-terminal amino group of proteins may have a lower accessibility to butelase 1 as compared to peptides. […]

[5] = tested on: butelase 1; assay: Degradation time course of peptide in the presence of butelase 1 (HPLC); assay type: biochemical; conditions: Clitoria ternatea, butelase 1 in reaction buffer, presence of 0.0005 molar equivalent of butelase 1 (50 nM), peptide 100 μM, 42° C.
Method: as §14, §15

[6] = tested on: butelase 1; conditions: highest reported value; cited from earlier work

For `CC(C)C[C@H](NC(=O)[C@@H](N)CCCNC(=N)N)C(=O)N[C@@H](Cc1ccc(O)cc1)C(=O)N[C@@H](CCCNC(=N)N)C(N)=O` [Monomer 11, RLYR, reference compound] (H-RLYR-NH2; N-terminus assumed), the MIC [1] was >300 µM, the “antimicrobial activity (in words)” value ([1]; E. coli, high-salt condition (100 mM NaCl)) was “no appreciable activity” and the MIC [2] was >300 µM. The “antimicrobial activity (in words)” value ([2]; S. aureus, high-salt condition (100 mM NaCl)) was “no appreciable activity”.

For `CC[C@H](C)[C@H](NC(=O)[C@H](CCCNC(=N)N)NC(=O)[C@H](CC(N)=O)NC(=O)[C@H](CCCNC(=N)N)NC(=O)[C@H](Cc1ccc(O)cc1)NC(=O)[C@H](CC(C)C)NC(=O)[C@H](CCCNC(=N)N)NC(C)=O)C(=O)NCCC(=O)NCCCC[C@H](NC(=O)CCNC(=O)[C@@H](NC(=O)[C@H](CCCNC(=N)N)NC(=O)[C@H](CC(N)=O)NC(=O)[C@H](CCCNC(=N)N)NC(=O)[C@H](Cc1ccc(O)cc1)NC(=O)[C@H](CC(C)C)NC(=O)[C@H](CCCNC(=N)N)NC(C)=O)[C@@H](C)CC)C(=O)N[C@@H](Cc1ccc(O)cc1)C(N)=O` [Dimer 12, (Ac-RLYRNRIβA)2KY] (I: Ac-RLYRNRI[βAla]KY-NH2 / II: Ac-RLYRNRI[βAla]; amide I:9-II:C), the MIC [1] was 18.3 µM (≈ 45.4 µg/mL) and the MIC [2] was 3.4 µM (≈ 8.43 µg/mL).

For `CC(C)[C@H](NC(=O)CSC(=O)[C@H](CC(N)=O)NC(=O)[C@H](CCCCN)NC(=O)[C@@H](N)Cc1ccc(O)cc1)C(N)=O` [Peptide 1, YKN(S)GV], the Km [3] was 2760 ± 300 µM, the kcat [3] was 56.5 ± 7.5 s⁻¹ and the half-life at 100 μM [4] was ~75 min. For the same molecule, the half-life at 100 μM [5] was 40 min.

With `CC[C@H](C)[C@H](NC(=O)[C@@H](N)CCCNC(=N)N)C(=O)NCCC(=O)NCCCC[C@H](NC(=O)CCNC(=O)[C@@H](NC(=O)[C@@H](N)CCCNC(=N)N)[C@@H](C)CC)C(=O)NCCCC[C@H](NC(=O)[C@H](CCCCNC(=O)CCNC(=O)[C@@H](NC(=O)[C@@H](N)CCCNC(=N)N)[C@@H](C)CC)NC(=O)CCNC(=O)[C@@H](NC(=O)[C@@H](N)CCCNC(=N)N)[C@@H](C)CC)C(=O)N[C@@H](Cc1ccc(O)cc1)C(N)=O` [Tetravalent dendron core 6, (RIβA)4K2KY] the MIC [1] was >150 µM and the MIC [2] was >150 µM.

Work on “YKNHV (not fully specified (C-terminus)) [Peptide 3]” yielded a Km [3] of 300 ± 10 µM and a kcat [3] of 4.1 ± 0.65 s⁻¹.

In the case of `CC[C@H](C)[C@H](NC(=O)[C@@H](N)CCCNC(=N)N)C(=O)NCCC(=O)NCCCC[C@H](NC(=O)CCNC(=O)[C@@H](NC(=O)[C@@H](N)CCCNC(=N)N)[C@@H](C)CC)C(=O)N[C@@H](Cc1ccc(O)cc1)C(N)=O` [Bivalent dendron core 2, (RIβA)2KY] (H-RI[βAla]K([βAla-Ile-Arg])Y-NH2; N-terminus assumed), the MIC [1] is reported as >150 µM and the MIC [2] is reported as >150 µM.

For “YKNGV (not fully specified (C-terminus)) [Peptide 4]”, the Km [3] was 880 ± 80 µM and the kcat [3] was 7.9 ± 0.72 s⁻¹.

In the case of `CC(C)[C@H](NC(=O)COC(=O)[C@H](CC(N)=O)NC(=O)[C@H](CCCCN)NC(=O)[C@@H](N)Cc1ccc(O)cc1)C(N)=O` [Peptide 2, YKN(O)GV] (H-YKN[X1]V-NH2; N-terminus assumed), the Km [3] is reported as 740 ± 10 µM, the kcat [3] is reported as 12.4 ± 0.32 s⁻¹ and the half-life at 100 μM [4] is reported as 45 min. The half-life at 100 μM [5] was 37 min.

B1: Butelase 1: Asn/Asp(Asx)-specific ligase isolated from the medicinal plant Clitoria ternatea (SEQ ID NO:1) (protein, listed as Clitoria ternatea)
chain: VEGTRWAVLVAGSKGYVNYRHQADVCHAYQILKKGGLKDENIIVFMYDDIAYNESNPHPGVIINHPYGSDVYKGVPKDYVGEDINPPNFYAVLLANKSALTGTGSGKVLDSGPNDHVFIYYTDHGGAGVLGMPSKPYIAASDLNDVLKKKHASGTYKSIVFYVESCESGSMFDGLLPEDHNIYVMGASDTGESSWVTYCPLQHPSPPPEYDVCVGDLFSVAWLEDCDVHNLQTETFQQQYEVVKNKTIVALIEDGTHVVQYGDVGLSKQTLFVYMGTDPANDNNTFTDKNSLGTPRKAVSQRDADLIHYWEKYRRAPEGSSRKAEAKKQLREVMAHRMHIDN
For B1, the catalytic efficiency [6] is given as “up to 542,000 M^−1 s^−1”.
